Measured values as given in patent publication US9113629B2, “4-amino-6-(4-substituted-phenyl)-picolinates and 6-amino-2-(4-substituted-phenyl)-pyrimidine-4-carboxylates and their use as herbicides” (DOW AGROSCIENCES LLC, priority 2013, dated 2015).
Where two headings read alike, the source gives them in different places.

What was measured:
[1] = tested on: Key Broadleaf Weed and Crop Species; test: Post-emergent Test II herbicidal activity (Table 5); type: in vivo; conditions: post-emergence, 336 h, post-emergent, 14 days after application; for pest or weed control at 70 g/ha: 70 g ai/ha; for pest or weed control at 140 g/ha: 140 g ai/ha
Procedure, shortened: (§1)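 Visual injury ratings (0 = no injury, 100 = complete kill) were taken 14 d after treatment, relative to untreated plants. Seedlings at the first–second true leaf stage received overhead spray at 187 L/ha; the highest rate was serially diluted to ½×, ¼×, ⅛× and 1/16×.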

[2] = tested on: Key Grass and Sedge Weeds as well as Grass Crops; test: Post-emergent Test II herbicidal activity (Table 6); type: in vivo; conditions: post-emergence, 336 h; for pest or weed control at 70 g/ha: application rate 70 g ai/ha; for pest or weed control at 140 g/ha: application rate 140 g ai/ha
Procedure, shortened: as §1

[3] = ABUTH: velvetleaf (Abutilon theophrasti), read-out: Visual Growth Reduction (%) 14 Days After Application ABUTH
[4] = AMARE: redroot pigweed (Amaranthus retroflexus), read-out: Visual Growth Reduction (%) 14 Days After Application AMARE
[5] = BRSNN: oilseed-rape, canola (Brassica napus), read-out: Visual Growth Reduction (%) 14 Days After Application BRSNN
[6] = CHEAL: lambsquarters (Chenopodium album), read-out: Visual Growth Reduction (%) 14 Days After Application CHEAL
[7] = EPHHL: wild poinsettia (Euphorbia heterophylla), read-out: Visual Growth Reduction (%) 14 Days After Application EPHHL
[8] = HELAN: sunflower (Helianthus annuus), read-out: Visual Growth Reduction (%) 14 Days After Application HELAN
[9] = VIOTR: wild pansy (Viola tricolor), read-out: Visual Growth Reduction (%) 14 Days After Application VIOTR
[10] = Triticum aestivum, TRZSS (wheat), read-out: Visual Growth Reduction (%) 14 Days After Application, TRZSS
[11] = CYPES: yellow nutsedge (Cyperus esculentus), read-out: Visual Growth Reduction (%) 14 Days After Application, CYPES
[12] = DIGSA: crabgrass (Digitaria sanguinalis), read-out: Visual Growth Reduction (%) 14 Days After Application, DIGSA
[13] = ECHCG: barnyardgrass (Echinochloa crus-galli), read-out: Visual Growth Reduction (%) 14 Days After Application, ECHCG
[14] = ORYSA: rice (Oryza sativa), read-out: Visual Growth Reduction (%) 14 Days After Application, ORYSA
[15] = SETFA: giant foxtail (Setaria faberi), read-out: Visual Growth Reduction (%) 14 Days After Application, SETFA
[16] = SORVU: grain sorghum (Sorghum vulgare), read-out: Visual Growth Reduction (%) 14 Days After Application, SORVU
[17] = ZEAMX: maize, corn (Zea mays), read-out: Visual Growth Reduction (%) 14 Days After Application, ZEAMX

Compound | pest or weed control at 70 g/ha [1, 3] | pest or weed control at 140 g/ha [1, 3] | pest or weed control at 70 g/ha [1, 4] | pest or weed control at 140 g/ha [1, 4] | pest or weed control at 70 g/ha [1, 5] | pest or weed control at 140 g/ha [1, 5] | pest or weed control at 70 g/ha [1, 6] | pest or weed control at 140 g/ha [1, 6] | pest or weed control at 70 g/ha [1, 7] | pest or weed control at 140 g/ha [1, 7] | pest or weed control at 70 g/ha [1, 8] | pest or weed control at 140 g/ha [1, 8] | pest or weed control at 70 g/ha [1, 9] | pest or weed control at 140 g/ha [1, 9] | pest or weed control at 70 g/ha [2, 10] | pest or weed control at 140 g/ha [2, 10] | pest or weed control at 70 g/ha [2, 11] | pest or weed control at 140 g/ha [2, 11] | pest or weed control at 70 g/ha [2, 12] | pest or weed control at 140 g/ha [2, 12] | other results
COC(=O)c1nc(-c2ccc(OC(F)F)cc2)c(C)c(N)c1Cl [Compound 111, Methyl 4-amino-3-chloro-6-(4-(difluoromethoxy)phenyl)-5-methylpicolinate] | 30 to 44% | 60 to 74% | 0 to 29% | 0 to 29% | 0 to 29% | 0 to 29% | 30 to 44% | 60 to 74% | 0 to 29% | 0 to 29% | 75 to 84% | 85 to 94% | 0 to 29% | 0 to 29% | 0 to 29% | 0 to 29% | 0 to 29% | 0 to 29% | 0 to 29% | 0 to 29% | pest or weed control at 70 g/ha [2, 13]: 0 to 29%; pest or weed control at 140 g/ha [2, 13]: 0 to 29%; pest or weed control at 70 g/ha [2, 14]: 0 to 29%; pest or weed control at 140 g/ha [2, 14]: 0 to 29%; pest or weed control at 70 g/ha [2, 15]: 0 to 29%; pest or weed control at 140 g/ha [2, 15]: 0 to 29%; pest or weed control at 70 g/ha [2, 16]: 0 to 29%; pest or weed control at 140 g/ha [2, 16]: 0 to 29%; pest or weed control at 70 g/ha [2, 17]: 0 to 29%; pest or weed control at 140 g/ha [2, 17]: 0 to 29%
Nc1c(Cl)c(C(=O)O)nc(-c2ccc(C(F)(F)F)c(F)c2)c1Cl [Compound 146] | 75 to 84% | 85 to 94% | 75 to 84% | 85 to 94% | 85 to 94% | 85 to 94% | 85 to 94% | 85 to 94% | 0 to 29% | 0 to 29% | 95 to 100% | 95 to 100% | 0 to 29% | 0 to 29% | 60 to 74% | 75 to 84% | 95 to 100% | 95 to 100% | 60 to 74% | 60 to 74% | pest or weed control at 70 g/ha [2, 13]: 75 to 84%; pest or weed control at 140 g/ha [2, 13]: 85 to 94%; pest or weed control at 70 g/ha [2, 14]: 0 to 29%; pest or weed control at 140 g/ha [2, 14]: 0 to 29%; pest or weed control at 70 g/ha [2, 16]: 30 to 44%; pest or weed control at 140 g/ha [2, 16]: 30 to 44%; pest or weed control at 70 g/ha [2, 17]: 60 to 74%; pest or weed control at 140 g/ha [2, 17]: 60 to 74%
